According to patent US20260184707A1, “PHARMACEUTICAL COMPOUNDS FOR THE TREATMENT OF COMPLEMENT MEDIATED DISORDERS” (ALEXION PHARMACEUTICALS, INC., priority 2022, published 2026):

Biological target: T1, Human complement C1s enzyme (Homo sapiens, UniProt P09871)
T1 construct: purified from human serum, Complement Technology, Inc; purchased Complement Technology, Inc; host or cells: human serum (plasma-derived native protein)
T1 sequence (P09871 438-688 limits assumed): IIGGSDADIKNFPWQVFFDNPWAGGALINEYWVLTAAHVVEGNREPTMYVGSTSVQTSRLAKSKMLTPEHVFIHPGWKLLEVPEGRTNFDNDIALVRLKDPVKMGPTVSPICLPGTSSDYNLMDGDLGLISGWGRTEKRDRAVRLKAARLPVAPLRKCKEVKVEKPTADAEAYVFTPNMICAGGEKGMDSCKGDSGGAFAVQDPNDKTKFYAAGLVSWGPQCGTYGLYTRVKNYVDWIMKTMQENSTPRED
T1 sequence (P09871 16-437 partner limits assumed): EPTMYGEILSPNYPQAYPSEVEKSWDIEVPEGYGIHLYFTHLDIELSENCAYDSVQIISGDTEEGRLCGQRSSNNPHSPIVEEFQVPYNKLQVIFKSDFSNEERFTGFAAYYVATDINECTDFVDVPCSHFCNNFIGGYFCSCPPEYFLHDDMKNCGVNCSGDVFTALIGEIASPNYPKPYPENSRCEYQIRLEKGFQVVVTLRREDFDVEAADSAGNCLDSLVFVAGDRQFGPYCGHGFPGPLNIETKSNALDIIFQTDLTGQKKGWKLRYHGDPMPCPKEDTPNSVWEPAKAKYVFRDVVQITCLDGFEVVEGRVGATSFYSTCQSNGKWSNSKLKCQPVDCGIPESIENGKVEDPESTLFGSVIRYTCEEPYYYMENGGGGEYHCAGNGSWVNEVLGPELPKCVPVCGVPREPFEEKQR
Assay: Human C1s enzyme assay
Format: biochemical
Details: human complement C1s enzyme 1.16 nM, substrate Z-L-Lys-SBzl, A405; read-out: IC50 (Stars)
Method in brief: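 Serum-purified human C1s (1.16 nM final) preincubated 5 min at room temperature with compound in 50 mM Tris, 1 M NaCl, pH 7.5. Z-L-Lys-SBzl and DTNB added at 100 μM each; A405 recorded every 30 s. IC50 from nonlinear regression of reaction rates versus compound concentration.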

Row | SMILES | IC50 [µM]
1 | O=C(Cn1c(-c2ccc(OC3CCOCC3)cc2)ncc(NCc2ccc3oc4ccccc4c3c2)c1=O)NCc1cc2cnccc2[nH]1 [Compound 280, N-((1H-pyrrolo[3,2-c]pyridin-2-yl)methyl)-2-(5-((dibenzo [b,d]furan-2-ylmethyl)amino)-6-oxo-2-(4-((tetrahydro-2H-pyran-4-yl)oxy)phenyl)pyrimi-din-1(6H)-yl)acetamide] | < 0.1
2 | O=C(Cn1c(N2CC(F)(F)C2)ncc(NCc2ccc3oc4ccccc4c3c2)c1=O)NCc1cc2cnccc2[nH]1 [Compound 281, N-((1H-pyrrolo[3,2-c]pyridin-2-yl)methyl)-2-(5-((dibenzo [b,d]furan-2-ylmethyl)amino)-2-(3,3-difluoroazetidin-1-yl)-6-oxopyrimidin-1(6H)-yl)acet-amide] | < 0.1
3 | C[C@H](Nc1ncc(-c2ccccc2)n(CC(=O)NCc2cc3cnccc3[nH]2)c1=O)c1ccc2oc3ccccc3c2c1 [Compound 282, (S)—N-((1H-pyrrolo[3,2-c]pyridine-2-yl)methyl)-2-(3-((1-(dibenzo[b,d]furan-2-yl)ethyl)amino)-2-oxo-6-phenylpyrazin-1(2H)-yl)acetamide] | < 0.1
4 | C[C@H](Nc1cnc(-c2cnn(C)c2)n(CC(=O)NCc2cc3cnccc3[nH]2)c1=O)c1ccc2oc3ccccc3c2c1 [Compound 283, (S)-N-((1H-pyrrolo[3,2-c]pyr-idin-2-yl)methyl)-2-(5-((1-(dibenzo[b,d]furan-2-yl)ethyl)-amino)-2-(1-methyl-1H-pyr-azol-4-yl)-6-oxopyrimidin-1(6H)-yl)acetamide] | < 0.1
5 | C[C@H](Nc1cnc(N2CCCCC2)n(CC(=O)NCc2cc3cnccc3[nH]2)c1=O)c1ccc2oc3ccccc3c2c1 [Compound 284, (S)-N-((1H-pyrrolo[3,2-c]pyr-idin-2-yl)methyl)-2-(5-((1-(dibenzo[b,d]furan-2-yl)ethyl)-amino)-6-oxo-2-(piperidin-1-yl)pyrimidin-1(6H)-yl)acet-amide] | < 0.1
6 | C[C@H](Nc1cnc(-c2ccccn2)n(CC(=O)NCc2cc3cnccc3[nH]2)c1=O)c1ccc2oc3ccccc3c2c1 [Compound 285, (S)—N-((1H-pyrrolo[3,2-c]pyridine-2-yl)methyl)-2-(5-((1-(dibenzo[b,d]furan-2-yl)ethyl)amino)-6-oxo-2-(pyridine-2-yl)pyrimidin-1(6H)-yl)acetamide] | < 0.1
7 | C[C@H](Nc1cnc(-c2cccs2)n(CC(=O)NCc2cc3cnccc3[nH]2)c1=O)c1ccc2oc3ccccc3c2c1 [Compound 286, (S)-N-((1H-pyrrolo[3,2-c]pyr-idin-2-yl)methyl)-2-(5-((1-(dibenzo[b,d]furan-2-yl)ethyl)-amino)-6-oxo-2-(thiophen-2-yl)pyrimidin-1(6H)-yl)acet-amide] | < 0.1
8 | Cn1cc(-c2ncc(NCc3ccc4oc5ccccc5c4c3)c(=O)n2CC(=O)NCc2cc3cnccc3[nH]2)cn1 [Compound 287, N-((1H-pyrrolo[3,2-c]pyridin-2-yl)methyl)-2-(5-((dibenzo [b,d]furan-2-ylmethyl)amino)-2-(1-methyl-1H-pyrazol-4-yl)-6-oxopyrimidin-1(6H)-yl)-acetamide] | < 0.1
9 | C[C@H](Nc1cnc(-c2ccc(O[C@@H]3CO[C@H]4[C@@H]3OC[C@H]4O)cc2)n(CC(=O)NCc2cc3cnccc3[nH]2)c1=O)c1ccc2oc3ccccc3c2c1 [Compound 288, N-((1H-pyrrolo[3,2-c]pyridin-2-yl)methyl)-2-(5-(((S)-1-(dibenzo[b,d]furan-2-yl)ethyl)-amino)-2-(4-(((3R,3aR,6R, 6aR)-6-hydroxyhexahydrofuro [3,2-b]furan-3-yl)oxy)phenyl)-6-oxopyrimidin-1(6H)-yl)acet-amide] | < 0.1
10 | O=C(Cn1c(-c2ccncc2)ncc(NCc2ccc3oc4ccccc4c3c2)c1=O)NCc1cc2cnccc2[nH]1 [Compound 289, N-((1H-pyrrolo[3,2-c]pyridin-2-yl)methyl)-2-(5-((dibenzo [b,d]furan-2-ylmethyl)amino)-6-oxo-2-(pyridin-4-yl)pyrimi-din-1(6H)-yl)acetamide] | < 0.1
11 | C[C@@H](Nc1cnc(-c2ccc(=O)n(C)c2)n(CC(=O)NCc2cc3cnccc3[nH]2)c1=O)c1ccc2oc3ccccc3c2c1 [Compound 290, (R)-N-((1H-pyrrolo[3,2-c]pyr-idin-2-yl)methyl)-2-(5-((1-(dibenzo[b,d]furan-2-yl)ethyl)-amino)-2-(1-methyl-6-oxo-1,6-dihydropyridin-3-yl)-6-oxopyr-imidin-1(6H)-yl)acetamide] | 0.1 to 1
12 | C[C@@H](Nc1cnc(C2=CCOCC2)n(CC(=O)NCc2cc3cnccc3[nH]2)c1=O)c1ccc2oc3ccccc3c2c1 [Compound 291, (R)-N-((1H-pyrrolo[3,2-c]pyr-idin-2-yl)methyl)-2-(5-((1-(dibenzo[b,d]furan-2-yl)ethyl)-amino)-2-(3,6-dihydro-2H-pyran-4-yl)-6-oxopyrimidin-1(6H)-yl)acetamide] | < 0.1
13 | Cc1cccc(-c2ncc(N[C@H](C)c3ccc4oc5ccccc5c4c3)c(=O)n2CC(=O)NCc2cc3cnccc3[nH]2)c1 [Compound 292, (R)-N-((1H-pyrrolo[3,2-c]pyr-idin-2-yl)methyl)-2-(5-((1-(dibenzo[b,d]furan-2-yl)ethyl)-amino)-6-oxo-2-(m-tolyl)pyr-imidin-1(6H)-yl)acetamide] | < 0.1
14 | C[C@@H](Nc1cnc(-c2cccc(Cl)c2)n(CC(=O)NCc2cc3cnccc3[nH]2)c1=O)c1ccc2oc3ccccc3c2c1 [Compound 293, (R)-N-((1H-pyrrolo[3,2-c]pyr-idin-2-yl)methyl)-2-(2-(3-chlorophenyl)-5-((1-(dibenzo [b,d]furan-2-yl)ethyl)amino)-6-oxopyrimidin-1(6H)-yl)acet-amide] | < 0.1
15 | C[C@@H](Nc1cnc(-c2ccccc2)n(CC(=O)N[C@H](C)c2cc3cnccc3[nH]2)c1=O)c1ccc2oc3ccccc3c2c1 [Compound 294, N-((R)-1-(1H-pyrrolo[3,2-c]pyridin-2-yl)ethyl)-2-(5-(((R)-1-(dibenzo[b,d]furan-2-l)ethyl)-amino)-6-oxo-2-phenylpyrimi-din-1(6H)-yl)acetamide] | 0.1 to 1
16 | C[C@H](Nc1cnc(N2CCOCC2)n(CC(=O)NCc2cc3cnccc3[nH]2)c1=O)c1ccc2oc3ccccc3c2c1 [Compound 295, (S)-N-((1H-pyrrolo[3,2-c]pyr-idin-2-yl)methyl)-2-(5-((1-(dibenzo[b,d]furan-2-yl)ethyl)-amino)-2-morpholino-6-oxo-pyrimidin-1(6H)-yl)acetamide] | < 0.1
17 | C[C@H](Nc1cnc(-c2ccc(S(F)(F)(F)(F)F)cc2)n(CC(=O)NCc2cc3cnccc3[nH]2)c1=O)c1ccc2oc3ccccc3c2c1 [Compound 296, (S)-N-((1H-pyrrolo[3,2-c]pyridin-2-yl)methyl)-2-(5-((1-(dibenzo[b,d]furan-2-yl)ethyl)-amino)-6-oxo-2-(4-(penta-fluoro-lambda6-sulfaneyl)-phenyl)pyrimidin-1(6H)-yl)-acetamide] | < 0.1
18 | O=C(Cn1c(-c2ccc(S(F)(F)(F)(F)F)cc2)ncc(NCc2ccc3oc4ccccc4c3c2)c1=O)NCc1cc2cnccc2[nH]1 [Compound 297, N-((1H-pyrrolo[3,2-c]pyridin-2-yl)methyl)-2-(5-((dibenzo [b,d]furan-2-ylmethyl)amino)-6-oxo-2-(4-(pentafluoro-lambda6-sulfaneyl)phenyl)pyr-imidin-1(6H)-yl)acetamide] | < 0.1
